Results reported in patent US10829796B2, “Bacteria identification and antimicrobial susceptibility test” (priority 2015, dated 2020).

System: bacteria in clinical bovine mastitis milk samples
Experiment: Combined bacteria identification and antimicrobial susceptibility test (colour of wells, MIC) on clinical bovine mastitis milk samples
Type: cell-based
Protocol: Clinical bovine mastitis milk samples were collected by a vet clinic in South Island, New Zealand. Samples were stored in the freezer for several months and shipped frozen to the testing facility. In this Example, the term “clinical” means that dairy cows had clinical symptoms of an udder infection e.g. cow behaved unusual, milk clots, swollen udder among other typical symptoms. Testing was executed in microwell plate comprising of 24 wells (3×8 wells).
In addition, 20 ul of clinical mastitis sample was added to each well with a laboratory pipette.
(§1) Abbreviations • 1. 80 ul GC+10 ul Tell: 80 ul Giolitti Cantoni base broth+10 ul Tellurite solution (1%); • 2. 80 ul TSB/Esc/Fer Cit: 80 ul Tryptic soy broth containing 0.25% Esculin and 0.125% Ammonium Ferric Citrate; • 3. 80 ul TSB/Esc/Fer Cit+10 ul Genta: 80 ul Tryptic soy broth containing 0.25% Esculin and 0.125% Ammonium Ferric Citrate+10 ul of Gentamycin solution 10 mg/ml; • 4. 80 ul McC/PR25: 80 ul MacConkey broth (single strength) containing 0.0125% phenol red; and • 5. 80 ul TSB/PR25: 80 ul Tryptic soy broth containing 0.0125% phenol red. Bacteria Identification
Columns A to C and rows 1 and 2 were used for bacteria identification. A1: coagulase positive Staph; A2: Staphylococci; B1: Strep group D; B2: Strep group D; C1: general enrichment media (gram+ and gram-bacteria); C2: coliform bacteria.
Column A3 to A8: serial dilution of benzyl penicillin as potassium. Column B3 to B8: serial dilution of ceftiofur as hydrochloride. Column C3 to C8: serial dilution of cloxacillin as sodium. Antibiotic concentrations are listed as free form ranging between 4 ug/ml to 0.05 ug/ml.
Minimum inhibitory substance concentration (MIC) is here defined as the concentration if a colour change occurs between two wells (one well remains red with drug concentration 1, the other one yellow with drug concentration 2, whereas drug concentration 1 is larger than drug concentration 2) then the MIC is the value of drug concentration 1.
Table 21 indicates the microwell plate configuration #1; Drugs: Benzylpenicillin as potassium; Cloxacillin as sodium; Ceftiofur as hydrochloride; Drug concentration in each well (A3 to C8) is based on 80 μl composition+10 μl drug solution+20 μl clinical mastitis milk sample and equivalent to listed drug concentration in μg/ml; 20 ul of clinical bovine mastitis milk sample was added to each well (A1 to C8).
In addition, each well received one drop of clinical sample from a transfer pipette which was on average about 35 mg. This was determined through weighing the well plate prior and after the addition of clinical mastitis samples. This weight was then divided by 24.
as §1, with “•” for “Abbreviations •”, “red.” for “red. Bacteria Identification”
Columns A to C and rows 1 and 2 were used for bacteria identification. A1: coagulase positive Staph; A2: Staphylococci; B1: Strep Group D; B2: -; C1: general enrichment media (gram+ and gram-); C2: coliform bacteria.
Column A3 to A8: serial dilution of benzyl penicillin as potassium. Drug concentrations given as free form ranging between 4 ug/ml to 0.05 ug/ml. Column B3 to B8: serial dilution of ceftiofur as hydrochloride. Drug concentrations given as free form ranging between 4 ug/ml to 0.05 ug/ml. Column C3 to C8: serial dilution of cloxacillin as sodium. Drug concentrations given as free form ranging between 4 ug/ml to 0.05 ug/ml.

`CO/N=C(\C(=O)N[C@@H]1C(=O)N2C(C(=O)O)=C(CSC(=O)c3ccco3)CS[C@H]12)c1csc(N)n1` [ceftiofur] was tested, and the “Colour of media in each well” value (ID 5 to 8, T = 0 h (prior incubation, reference), plate configuration #2, drug 2 μg/ml) was “red”, the “Colour of media in each well” value (ID 5 to 8, T = 0 h (prior incubation, reference), plate configuration #2, drug 4 μg/ml) was “red” and the “Colour of media in each well” value (ID 6, T = 23h, 37° C., plate configuration #2, drug 0.05 μg/ml (Table 31)) was “yellow”. The “Colour of media in each well” value (ID 6, T = 23h, 37° C., plate configuration #2, drug 0.1 μg/ml (Table 31)) was “yellow”, the “Colour of media in each well” value (ID 6, T = 23h, 37° C., plate configuration #2, drug 0.5 μg/ml (Table 31)) was “yellow” and the “Colour of media in each well” value (ID 6, T = 23h, 37° C., plate configuration #2, drug 1 μg/ml (Table 31)) was “yellow”. For the same compound, the “Colour of media in each well” value (ID 6, T = 23h, 37° C., plate configuration #2, drug 2 μg/ml (Table 31)) was “red”, the “Colour of media in each well” value (ID 6, T = 23h, 37° C., plate configuration #2, drug 4 μg/ml (Table 31)) was “red” and the “Colour of media in each well” value (ID 6, T~7 h, 37° C., plate configuration #2, Table 35, drug 0.05 μg/ml) was “yellow”. For the same compound, the “Colour of media in each well” value (ID 6, T~7 h, 37° C., plate configuration #2, Table 35, drug 0.1 μg/ml) was “yellow”, the “Colour of media in each well” value (ID 6, T~7 h, 37° C., plate configuration #2, Table 35, drug 0.5 μg/ml) was “yellow” and the “Colour of media in each well” value (ID 6, T~7 h, 37° C., plate configuration #2, Table 35, drug 1 μg/ml) was “red”. The “Colour of media in each well” value (ID 6, T~7 h, 37° C., plate configuration #2, Table 35, drug 2 μg/ml) was “red”, the “Colour of media in each well” value (ID 6, T~7 h, 37° C., plate configuration #2, Table 35, drug 4 μg/ml) was “red” and the “Colour of media in each well” value (ID 6, T~11 h, 37° C., plate configuration #2, Table 35, drug 0.05 μg/ml) was “yellow”. For the same compound, the “Colour of media in each well” value (ID 6, T~11 h, 37° C., plate configuration #2, Table 35, drug 0.1 μg/ml) was “yellow”, the “Colour of media in each well” value (ID 6, T~11 h, 37° C., plate configuration #2, Table 35, drug 0.5 μg/ml) was “yellow” and the “Colour of media in each well” value (ID 6, T~11 h, 37° C., plate configuration #2, Table 35, drug 1 μg/ml) was “red”. The “Colour of media in each well” value (ID 6, T~11 h, 37° C., plate configuration #2, Table 35, drug 2 μg/ml) was “red”, the “Colour of media in each well” value (ID 6, T~11 h, 37° C., plate configuration #2, Table 35, drug 4 μg/ml) was “red” and the “Colour of media in each well” value (ID 6, T~23 h, 37° C., plate configuration #2, Table 35, drug 0.05 μg/ml) was “yellow”. For the same compound, the “Colour of media in each well” value (ID 6, T~23 h, 37° C., plate configuration #2, Table 35, drug 0.1 μg/ml) was “yellow”, the “Colour of media in each well” value (ID 6, T~23 h, 37° C., plate configuration #2, Table 35, drug 0.5 μg/ml) was “yellow” and the “Colour of media in each well” value (ID 6, T~23 h, 37° C., plate configuration #2, Table 35, drug 1 μg/ml) was “yellow”. The “Colour of media in each well” value (ID 6, T~23 h, 37° C., plate configuration #2, Table 35, drug 2 μg/ml) was “red”, the “Colour of media in each well” value (ID 6, T~23 h, 37° C., plate configuration #2, Table 35, drug 4 μg/ml) was “red” and the “Colour of media in each well” value (ID 7, T = 23h, 37° C., plate configuration #2, drug 0.05 μg/ml) was “yellow”. The “Colour of media in each well” value (ID 7, T = 23h, 37° C., plate configuration #2, drug 0.1 μg/ml) was “yellow”, the “Colour of media in each well” value (ID 7, T = 23h, 37° C., plate configuration #2, drug 0.5 μg/ml) was “yellow” and the “Colour of media in each well” value (ID 7, T = 23h, 37° C., plate configuration #2, drug 1 μg/ml) was “red”. The “Colour of media in each well” value (ID 7, T = 23h, 37° C., plate configuration #2, drug 2 μg/ml) was “red”, the “Colour of media in each well” value (ID 7, T = 23h, 37° C., plate configuration #2, drug 4 μg/ml) was “red” and the “Colour of media in each well” value (ID 8, T = 23 h, 37° C., plate configuration #2, drug 0.05 μg/ml) was “yellow”. For the same compound, the “Colour of media in each well” value (ID 8, T = 23 h, 37° C., plate configuration #2, drug 0.1 μg/ml) was “yellow”, the “Colour of media in each well” value (ID 8, T = 23 h, 37° C., plate configuration #2, drug 0.5 μg/ml) was “red” and the “Colour of media in each well” value (ID 8, T = 23 h, 37° C., plate configuration #2, drug 1 μg/ml) was “red”. The “Colour of media in each well” value (ID 8, T = 23 h, 37° C., plate configuration #2, drug 2 μg/ml) was “red”, the “Colour of media in each well” value (ID 8, T = 23 h, 37° C., plate configuration #2, drug 4 μg/ml) was “red” and the “Colour of media in each well” value (Table 24, sample ID 2, 22 hours at 37° C., plate configuration #1, row 3 of serial dilution 4 ug/ml to 0.05 ug/ml) was “red”. The “Colour of media in each well” value (Table 24, sample ID 2, 22 hours at 37° C., plate configuration #1, row 4 of serial dilution 4 ug/ml to 0.05 ug/ml) was “red”, the “Colour of media in each well” value (Table 24, sample ID 2, 22 hours at 37° C., plate configuration #1, row 5 of serial dilution 4 ug/ml to 0.05 ug/ml) was “red” and the “Colour of media in each well” value (Table 24, sample ID 2, 22 hours at 37° C., plate configuration #1, row 6 of serial dilution 4 ug/ml to 0.05 ug/ml) was “orange”. The “Colour of media in each well” value (Table 24, sample ID 2, 22 hours at 37° C., plate configuration #1, row 7 of serial dilution 4 ug/ml to 0.05 ug/ml) was “yellow”, the “Colour of media in each well” value (Table 24, sample ID 2, 22 hours at 37° C., plate configuration #1, row 8 of serial dilution 4 ug/ml to 0.05 ug/ml) was “yellow” and the MIC (clinical sample ID 1 (streptococci group D), 37° C. for 22 hours, plate configuration #1) was 0.5 µg/mL. For the same compound, the MIC (clinical sample ID 2 (streptococci group D, also coagulase positive Staph), 37° C. for 22 hours, plate configuration #1) was 1 µg/mL, the MIC (clinical sample ID 3 (coliform bacteria), 37° C. for 22 hours, plate configuration #1) was 1 µg/mL and the MIC (clinical sample ID 4 (coagulase positive Staph), 37° C. for 22 hours, plate configuration #1) was 1 µg/mL. It also gave an MIC (clinical sample ID 5 (streptococci group D), 37° C. for 23 hours, plate configuration #2) of 0.5 µg/mL, an MIC (clinical sample ID 6 (coliform bacteria), 37° C. for 23 hours, plate configuration #2) of 2 µg/mL and an MIC (clinical sample ID 7 (coagulase positive Staph), 37° C. for 23 hours, plate configuration #2) of 1 µg/mL. The MIC (clinical sample ID 8 (coagulase negative Staph and Streptococci group D), 37° C. for 23 hours, plate configuration #2) was 0.5 µg/mL.
